Assay results published in patent US20070059269A1, “Administration of 8-hexadecene-1,16-dicarboxylic acid for promoting cohesion of the epidermal horny layer” (L'OREAL, priority 2005, published 2007).

Legend:
Type in all cases: cell-based
LEP16 = test: Differential expression by cDNA minichips in NHEK: LEP16; conditions: normal human epidermal keratinocytes (NHEK), cDNA array
Protocol: (§1) Analysis of the Differential expression by Minichips:
(§2) In order to study the activity of a product on the formation of the horny layer, the effect of the product on the expression of genes known to be modulated in keratinocytes during their transformation into corneocytes is analyzed.
(§3) The analysis is performed using dedicated minichips, consisting of cDNA membrane arrays known to those skilled in the art for their relationship with re-epithelialization and/or cohesion of the horny layer, especially such as the LEP proteins (late epidermal proteins), corneodesmosines and epidermal growth factor HBEGF (human heparin-binding EGF-like growth factor).
(§4) The cell model used comprises normal human epidermal keratinocytes (NHEK). The keratinocytes are cultured in SFM medium with 0.25 ng/ml EGF and 25 μg/ml of pituitary extract at 37° C. and 5% CO2. The keratinocytes are inoculated in 25 cm^2 dishes and precultured in whole SFM medium, and then placed in EGF-free and pituitary extract-free SFM medium.
(§5) The test products are applied at the non-irritant and non-cytotoxic concentrations defined in a).
(§6) The controls correspond to the same conditions, in the absence of product.
(§7) The cells are then rinsed with PBS and then lysed and the messenger RNA is extracted and purified using the kit Chemagic mRNA Direct kit marketed by Chemagen.
(§8) The RNA of each culture is then reverse-transcripted using a pool of primers corresponding to the cDNAs immobilized on the membranes (probes) and a ^33P-labelled deoxynucleotide triphosphate.
(§9) Multiple cDNA “target” labeled sequences were thus prepared for each culture. These targets were then hybridized, under optimal conditions, with the excess “probe” cDNAs bound to the membranes. […] The membrane analysis was performed using the ImageQuant TL software (Image Analysis, Amersham Biosciences) and the data recorded were then processed on Excel. The differential expression of the various genes following the treatment is thus measured by comparison with the corresponding control.

Cdsn (corneodesmosine) = test: Differential expression by cDNA minichips in NHEK: corneodesmosine (Cdsn); conditions: normal human epidermal keratinocytes (NHEK), cDNA array
Protocol: as §1, §2, §3, §4, §5, §6, §7, §8, §9

[1] = tested on: HBEGF (human heparin-binding EGF-like growth factor); test: Differential expression by cDNA minichips in NHEK: HBEGF; conditions: 1 μg/ml, normal human epidermal keratinocytes (NHEK), cDNA array
Protocol: as §1, §2, §3
as §4, with “medium. […]” for “medium.”
Multiple cDNA “target” labeled sequences were thus prepared for each culture. […] The membrane analysis was performed using the ImageQuant TL software (Image Analysis, Amersham Biosciences) and the data recorded were then processed on Excel. The differential expression of the various genes following the treatment is thus measured by comparison with the corresponding control.

[2] = 1 μg/ml, listed as 8-hexadecene-1,16-dicarboxylic acid

**Q.** Which “Markers for the formation of the horny layer (LEP): LEP16 expression, multiplicative factor vs control” value (shortened to “Markers for the formation … vs control”) (LEP16; 100 μg/ml) does the source give for `CC(O)C(=O)O` (stereo not shown) [Lactic acid, reference compound] here?
**A.** The value was “LEP16 (×1.6)”.

**Q.** `O=C(O)CCCCCCCC=CCCCCCCCC(=O)O` [Dioic acid, 8-hexadecene-1,16-dicarboxylic acid] was tested. Which “Markers for the formation … vs control” value (LEP16; 1 μg/ml) did it give?
**A.** The value was “LEP16 (×3.0)”.

**Q.** What about the “Markers for the formation … vs control” value (LEP16; [2]) of the same compound?
**A.** The value was “capable of stimulating the expression”.

**Q.** And the “Markers for intercorneocytic cohesion (Cdsn): Cdsn expression, multiplicative factor vs control” value (Cdsn (corneodesmosine); 1 μg/ml)?
**A.** Its value is “Cdsn (×2.4)”.

**Q.** And the “Markers for intercorneocytic cohesion (Cdsn): Cdsn expression, multiplicative factor vs control” value (Cdsn (corneodesmosine); [2])?
**A.** The value was “capable of stimulating the expression”.

**Q.** What about the “Re-epithelialization markers: HBEGF expression, multiplicative factor vs control” value [1] of the same compound?
**A.** The value was “HBEGF (×1.6)”.

**Q.** And the “Re-epithelialization markers: HBEGF expression, multiplicative factor vs control” value ([1]; listed as 8-hexadecene-1,16-dicarboxylic acid)?
**A.** The value was “capable of stimulating the expression”.

**Q.** With `O=C(O)CO` [Glycolic acid, reference compound] as the compound, how does the “Markers for the formation … vs control” value (LEP16; 100 μg/ml) read?
**A.** Its value is “LEP16 (×2.6)”.

**Q.** And the “Markers for intercorneocytic cohesion (Cdsn): Cdsn expression, multiplicative factor vs control” value (Cdsn (corneodesmosine); 100 μg/ml)?
**A.** The value was “Cdsn (×1.6)”.

**Q.** With `O=C1O[C@H]([C@@H](O)CO)C(O)=C1O` [Ascorbic acid, reference compound] as the compound, how does the “Markers for intercorneocytic cohesion (Cdsn): Cdsn expression, multiplicative factor vs control” value (Cdsn (corneodesmosine); 100 μg/ml) read?
**A.** The value was “Cdsn (×1.7)”.
